Measurements taken from patent US6008356A, “Pharmaceutically available protoberberine salts derivatives, and protoberberine salts derivatives, and protoberberine derivatives and salts thereof” (priority 1998, dated 1999).
Where a name gives a salt, the structure may show the parent alone.

Experiments:
[1] = system: Gram-negative or Gram-positive bacteria, such as Staphylococcus aureus, Staphylococcus hemolyticus, Salmonella typhosa, Shigella dysenteriae, Shigella …; conditions: cited from earlier work
[2] = system: fungi, such as Alternaria sp., Aspergillus flavus, Aspergdlus fumigatus, Candida albicans, Curvularia sp., Drechslera sp., Fusarium sp., Mucor sp., Penicillium …; conditions: Mahajan et al. 1982; cited from earlier work
Candida albicans = conditions: oral, 350-700 mg/kg; Mirska et al. 1972; cited from earlier work
human = conditions: may cause harmful or lethal effect on human in case of being dosed excessively; cited from earlier work
[3] = system: cultured lung cells derived from chinese hamster; format: cell-based
rats = test: acute oral toxicity; conditions: rat, in vivo
Procedure: (§1) Meanwhile, the toxicity test of the compound of the present invention was performed using […]. The compound was suspended in propylene glycol. The resulting suspension was medicated respectively on 5 female rats and 5 male rats(SD) of which age are 5 weeks, via oral after 12 hour starvation. The general symtoms, weight change and lethal case of the above rats were investigated. In cases of tests of the compound Nos. 25, 62, 63 and 85 (delivery of 2,000 mg/kg), the general symtom and weight change were normal and the lethal case was not observed. […] The toxicity data on the compound Nos. 25, 62, 63 and 85 are described in the following Table 5. In light forgoings, the compounds of the present invention are safe in toxicity and have the excellent lethal effect and growth-inhibition effect against fungus.

acute oral toxicity = conditions: rat, in vivo, po, rats
Procedure: as §1

C. albicans ATCC 28838 = test: MIC; format: cell-based, Candida albicans; conditions: Candida albicans, ATCC28838; C. albicans ATCC 28838; read-out: MIC
C. albicans KCTC 1940 = test: MIC; format: cell-based, Candida albicans; conditions: Candida albicans, KCTC1940; C. albicans KCTC 1940; read-out: MIC
C. krusei = test: MIC; format: cell-based; conditions: Pichia kudriavzevii; C. krusei; read-out: MIC
C. albicans OY 003 = test: MIC; format: cell-based, Candida albicans; conditions: Candida albicans, OY003; C. albicans OY 003; read-out: MIC
C. albicans OY 019 = test: MIC; format: cell-based, Candida albicans; conditions: Candida albicans, OY019; C. albicans OY 019; read-out: MIC
C. albicans IFO 1385 = test: MIC; format: cell-based, Candida albicans; conditions: Candida albicans, IFO1385; C. albicans IFO 1385; read-out: MIC
fungal infection of foot = test: 0.5% creamy formulation applied on male patients with fungal infection of foot; format: in vivo, human (male patients); conditions: 0.5% cream once a day for five days
Text: The above 0.5% creamy formulation of the compound No. 62 was applied on infected area of 10 male patients with fungal infection of foot, in a proper amount once a day for five days.

salmonella typhimurium = test: bacterial reverse mutation test (Ames test); format: cell-based
C. albicans U.K. = test: MIC; format: cell-based; conditions: Candida albicans; C. albicans U.K.; read-out: MIC
male ICR mice = conditions: mouse, in vivo
C. glulliermendi = test: MIC; format: cell-based; conditions: C. glulliermendi; read-out: MIC
C. albicans ATCC 10231 = test: MIC; format: cell-based; conditions: Candida albicans, ATCC10231; C. albicans ATCC 10231; read-out: MIC
Epidermophyton floccosum = test: Antifungal efficacy of creamy formulation against local fungal skin infection; format: in vivo, mouse (SKH/1, hairless, male); conditions: 0.5% cream, topical
Procedure: Specific pathogen free SKH/1 male mouse(Hairless) of which weight is 30-35 g and age is 5 weeks, was reared with sterilized water and feed for 12 night/day in the condition of 21-23° C. and of 50% relative humidity. Five mice were allocated by each group. After skin infection, each mouse was taken in separate cage. The strain of microorganism for infection(Epidermophyton floccosum) was cultivated on a flat medium of SDA(Sabouraud Dextrose Agar) for 5-7 days and after confirmation of macrocomidia, 3 ml of RPMI (Rosewell Park Memorial Institute) 1640 media per each flat medium was added thereto and then scraped well using loop to remove hyphae from media. The floating liquid was suspended briefly and then diluted with RPMI 1640 media to adjust the concentration of hyphae to 2×10^6 CFU/ml. Mouse was anesthetized and marked on back site(lumbosacral area) in a shape of circle of which diameter is 1.5 cm. Then, the inner part of marked skin was scratched with sand paper. The scratched part was covered with a filter paper to preserve inoculated microorganism for a long time and thereby stimulating the skin continuously. 0.2 ml of fungus solution of which concentration is adjusted as described above, was inoculated between the skin and filter paper. 5 Days after the inoculation, the filter paper was removed and the infection of skin was examined. The test formulations, 0.5% creamy formulations of the compounds Nos. 62 and 85, 1.0% creamy formulation of Terbinafine(Lamisile cream) and a placebo was applied on the infected areas in a same amount once a day for 5 days. The clinical evaluation on the change of the infected area in 5 days after the inoculation was performed and expressed numerically from 0 to 4. The daily change of the infected area was checked every day. The result of each group was compared with each other.
1: Mild erythema or small number of skin eruption
2: Well-demarcated erythema with scales or mild skin eruption of infected area
3: Wide area of marked skin eruption, scales, swelling or severe skin eruption with partial swelling and scales
4: The same as those of control, or severe skin eruption in entire lesion
The result was calculated as follows;
T: Average score of clinical evaluation in drug treated area
K: Average score of clinical evaluation in placebo control group
Moreover, the antifungal efficacies of the 0.5% creamy formulation of the compounds Nos. 29, 35, 60, 62, 63 and 85, and 1% creamy formulation of Terbinafme (Lamisil cream), which are measured by applying the above formulations on the skin infected with Epidermophyton floccosum of mouse which is the standard animal for the test of local fungal skin infection, i.e, Specific Pathogen Free SKH/1, are described in the following Table 4.

C. glabrata = test: MIC; format: cell-based; conditions: Nakaseomyces glabratus; C. glabrata; read-out: MIC
C. albicans ATCC 11651 = test: MIC; format: cell-based, Candida albicans; conditions: Candida albicans, ATCC11651; C. albicans ATCC 11651; read-out: MIC
C. parapsilosis = test: MIC; format: cell-based; conditions: Lodderomyces parapsilosis; C. parapsilosis; read-out: MIC
E. floccosum = test: MIC; format: cell-based, Epidermophyton floccosum; conditions: Epidermophyton floccosum; E. floccosum; read-out: MIC

| Structure (SMILES) | chromosome abnormality test [3] | lethal case (rats) | LD50 (acute oral toxicity; female) | LD50 (acute oral toxicity; male) | MIC (C. albicans ATCC 28838) | MIC (C. albicans KCTC 1940) | MIC (C. krusei) | MIC (C. albicans OY 003) | MIC (C. albicans OY 019) | MIC (C. albicans IFO 1385) | AMES test (salmonella typhimurium) | MIC (C. albicans U.K.) | nucleus test (micronucleous test) (male ICR mice) | MIC (C. glulliermendi) | MIC (C. albicans ATCC 10231) | Efficacy (%) 0 day later (Epidermophyton floccosum) | Efficacy (%) 1 day later (Epidermophyton floccosum) | Efficacy (%) 2 day later (Epidermophyton floccosum) | Efficacy (%) 3 day later (Epidermophyton floccosum) | Efficacy (%) 4 day later (Epidermophyton floccosum) | other results |
| --- | --- | --- | --- | --- | --- | --- | --- | --- | --- | --- | --- | --- | --- | --- | --- | --- | --- | --- | --- | --- | --- |
| COc1ccc2cc3[n+](cc2c1OC)CCc1cc2c(cc1-3)OCO2 [Berberine chloride] |  |  |  |  |  |  |  |  |  |  |  |  |  |  |  |  |  |  |  |  | antibacterial activity ([1]; Ukita et al. 1949): exhibits antibacterial activity |
| COc1ccc2cc3[n+](cc2c1OC)CCc1cc2c(cc1-3)OCO2 [berberine sulfate] |  |  |  |  |  |  |  |  |  |  |  |  |  |  |  |  |  |  |  |  | concentration inhibiting the growth of fungi [2]: 10 to 25 mg/mL; effect in mice infected with Candida albicans (Candida albicans): effective; toxicity (human): exhibits intense toxicity |
| COc1ccc2c(Cc3ccc(C(C)(C)C)cc3)c3[n+](cc2c1OC)CCc1cc2c(cc1-3)OCO2 [compound 62, 13-(4-t-butylbenzyl)berberine chloride] | negative | not observed | > 2700 mg/kg | > 3700 mg/kg | 0.78 µg/mL | 0.78 µg/mL | 3.12 µg/mL | 0.78 µg/mL | 0.78 µg/mL | 6.25 µg/mL | negative | 6.25 µg/mL | negative | 12.5 µg/mL | 6.25 µg/mL | 0% | 40.0% | 55.4% | 69.4% | 72.6% | remedial effect (fungal infection of foot; in 8 of 10 male patients): more than 98%; patients exhibiting remedial effect more than 98% (fungal infection of foot; of 10 male patients): 8 Patients; Efficacy (%) 5 day later (Epidermophyton floccosum): 76.3%; Efficacy (%) 6 day later (Epidermophyton floccosum): 79.2%; Efficacy (%) 7 day later (Epidermophyton floccosum): 85.4%; MIC (C. glabrata): > 100 µg/mL; MIC (C. albicans ATCC 11651): 0.78 µg/mL; MIC (C. parapsilosis): > 100 µg/mL; MIC (E. floccosum): 12.5 µg/mL |
| COc1ccc2c(Cc3ccc(C(C)C)cc3)c3[n+](cc2c1OC)CCc1cc2c(cc1-3)OCO2 [compound 63, 13-(4-i-propylbenzyl)berberine chloride] | negative | not observed | > 2000 mg/kg | > 2500 mg/kg | 0.78 µg/mL | 1.56 µg/mL | 3.12 µg/mL | 6.25 µg/mL | 1.56 µg/mL | 6.25 µg/mL | negative | 6.25 µg/mL | negative | 12.5 µg/mL | 6.25 µg/mL | 0% | 42.5% | 52.5% | 59.8% | 64.6% | Efficacy (%) 5 day later (Epidermophyton floccosum): 73.6%; Efficacy (%) 6 day later (Epidermophyton floccosum): 75.6%; Efficacy (%) 7 day later (Epidermophyton floccosum): 80.2%; MIC (C. glabrata): > 100 µg/mL; MIC (C. albicans ATCC 11651): 0.78 µg/mL; MIC (C. parapsilosis): > 100 µg/mL; MIC (E. floccosum): 12.5 µg/mL |
| CCCOc1cc2c(cc1OCCC)-c1cc3ccc(OCCC)c(OCCC)c3c[n+]1CC2 [compound 85, 2,3,9,10-tetrapropoxy protoberberine iodide] | negative | not observed | > 5000 mg/kg | > 5000 mg/kg | 0.78 µg/mL | 0.4 µg/mL | 1.56 µg/mL | 0.4 µg/mL | 0.4 µg/mL | 6.25 µg/mL | negative | 50 µg/mL | negative | > 100 µg/mL | 6.25 µg/mL | 0% | 34.5% | 38.8% | 42.5% | 54.6% | Efficacy (%) 5 day later (Epidermophyton floccosum): 63.2%; Efficacy (%) 6 day later (Epidermophyton floccosum): 68.0%; Efficacy (%) 7 day later (Epidermophyton floccosum): 70.5%; MIC (C. glabrata): > 100 µg/mL; MIC (C. albicans ATCC 11651): 0.4 µg/mL; MIC (C. parapsilosis): 12.5 µg/mL; MIC (E. floccosum): > 100 µg/mL |
| COc1ccc2c(c1OC)CN1CCc3cc4c(cc3C1C2)OCO4 (stereo not shown) [tetrahydroberberine] |  |  |  |  |  |  |  |  |  |  |  |  |  |  |  |  |  |  |  |  | antibacterial effect of derivatives without quaternary ammonium salt ([1]; Pitea et al. 1972): exhibits less effect |
